# Source: patent publication US20260165323A1, “USE OF STROBILURIN TYPE COMPOUNDS FOR COMBATING PHYTOPATHOGENIC FUNGI CONTAINING AN AMINO ACID SUBSTITUTION F129L IN THE MITOCHONDRIAL CYTOCHROME B PROTEIN CONFERRING RESISTANCE TO QO […]” (priority 2022, published 2026)
# Key:
# Assay type in all cases: in vivo
# [1] = test system: Phakopsora pachyrhizi containing the amino acid substitution F129L in the mitochondrial cytochrome b protein; assay: Use Example 1: protective control of soybean rust on soybeans (PHAKPA P2); settings: inoculated 2 days after spraying, % diseased leaf area
# Experimental: (§1) The compound was dissolved in a mixture of acetone and/or dimethylsulfoxide and the wetting agent/emulsifier Wettol, which is based on ethoxylated alkylphenoles, in a ratio (volume) solvent-emulsifier of 99 to 1 to give a total volume of 5 ml. Subsequently, water was added to total volume of 100 ml. This stock solution was then diluted with the described solvent-emulsifier-water mixture to the final concentration given in the tables below.
# Use Example 1. Protective Control of Soybean Rust on Soybeans Caused by Phakopsora pachyrhizi (PHAKPA P2)
# (§2) Leaves of potted soybean seedlings were sprayed to run-off with the previously described spray solution, containing the concentration of active ingredient or their mixture as described below. The plants were allowed to air-dry. The trial plants were cultivated for 2 days in a greenhouse chamber at 23-27° C. and a relative humidity between 60 and 80%. Then the plants were inoculated with spores of Phakopsora pachyrhizi. The strain used contains the amino acid substitution F129L in the mitochondrial cytochrome b protein conferring resistance to Qo inhibitors. To ensure the success the artificial inoculation, the plants were transferred to a humid chamber with a relative humidity of about 95% and 20 to 24° C. for 24 hr. The trial plants were cultivated for up to 14 days in a greenhouse chamber at 23 to 27° C. and a relative humidity between 60 and 80%. The extent of fungal attack on the leaves was visually assessed as % diseased leaf area, the disease level of untreated controls was usually higher than 85%.
# [2] = test system: Puccinia recondita; assay: Use Example 4: preventative control of brown rust on wheat (PUCCRT P7); settings: inoculated seven days after spraying, % diseased leaf area
# Experimental: as §1
# Use Example 4. Preventative Control of Brown Rust on Wheat Caused by Puccinia recondita (PUCCRT P7)
# The first two developed leaves of potted wheat seedling were sprayed to run-off with previously described spray solution, containing the concentration of active ingredient or their mixture as described below. Seven days later the plants were dusted with spores of Puccinia recondita. To ensure the success of the artificial inoculation, the plants were transferred to a humid chamber without light and a relative humidity of 95 to 99% and 20 to 24° C. for 24 h. Then the trial plants were cultivated for 9 to 11 days in a greenhouse chamber at 20 to 24° C. and a relative humidity between 65 and 70%. The extent of fungal attack on the leaves was visually assessed as % diseased leaf area, the disease level of untreated controls was usually between 80 and 100%.
# [3] = test system: Phakopsora pachyrhizi containing the amino acid substitution F129L in the mitochondrial cytochrome b protein; assay: Use Example 2: protective control of soybean rust on soybeans (PHAKPA P6); settings: inoculated six days after spraying, % diseased leaf area
# Experimental: as §1
# Use Example 2. Protective Control of Soybean Rust on Soybeans Caused by Phakopsora Pachyrhizi (PHAKPA P6)
# as §2, with “active ingredient as described” for “active ingredient or their mixture as described”, “cultivated for six days in” for “cultivated for 2 days in”, “95% and 23 to 27°” for “95% and 20 to 24°”, “23 to 27° C. for” for “20 to 24° C. for”
Compound,% PHAKPA (F129L) Disease level P2 at 4 ppm [1] [%],% PHAKPA (F129L) Disease level P2 at 16 ppm [1] [%],% PUCCRT Disease level P7 at 4 ppm [2] [%],% PUCCRT Disease level P7 at 16 ppm [2] [%],% PHAKPA (F129L) Disease level P6 at 4 ppm [3] [%],% PHAKPA (F129L) Disease level P6 at 16 ppm [3] [%]
COC/C(=N\OCc1c(Cl)cccc1/C(=N\OC)C(=O)OC)c1ccc(F)c(F)c1F [compound 98],72,15,50,12,72,31
COC/C(=N\OCc1c(Cl)cccc1/C(=N\OC)C(=O)OC)c1ccc(F)cc1F [compound 78],9,0,42,10,45,2
"CO/C=C(/C(=O)OC)c1cccc(Cl)c1CO/N=C(\COC)c1ccccc1Cl [compound 15, Methyl-(E)-2-[3-chloro-2-[[(Z)-[1-(2-chlorophenyl)-2-methoxy-ethylidene]amino]oxymethyl]phenyl]-3-methoxy-prop-2-enoate]",30,4,–,–,40,7
CNC(=O)/C(=N/OC)c1cccc(Cl)c1CO/N=C(\COC1CC1)c1ccc(F)cc1 [compound 64],37,7,–,–,45,7
CNC(=O)/C(=N/OC)c1cccc(Cl)c1CO/N=C(\COC)c1ccc(F)cc1Cl [compound 94],29,5,57,26,43,11
CNC(=O)/C(=N/OC)c1cccc(Cl)c1CO/N=C(\COC)c1c(F)ccc(F)c1F [compound 112],8,0,43,6,21,0
COC/C(=N\OCc1c(Cl)cccc1/C(=N\OC)C(=O)OC)c1cc(Cl)ccc1F [compound 103],72,18,–,–,72,18
CO/C=C(/C(=O)OC)c1cccc(Cl)c1CO/N=C(\COC)c1c(F)cc(Cl)cc1F [compound 115],8,0,57,14,9,1
COC/C(=N\OCc1c(Cl)cccc1/C(=N\OC)C(=O)OC)c1cc(F)c(F)c(F)c1 [compound 72],19,1,60,16,48,10
CO/C=C(/C(=O)OC)c1cccc(Cl)c1CO/N=C(\COC)c1ccc(Cl)cc1Cl [compound 81],63,21,–,–,35,20
COC/C(=N\OCc1c(Cl)cccc1/C(=N\OC)C(=O)OC)c1cc(F)cc(F)c1 [compound 82],12,0,57,17,57,22
CO/C=C(/C(=O)OC)c1cccc(Cl)c1CO/N=C(\COC1CC1)c1ccccc1 [compound 61],11,0,–,–,16,2
CNC(=O)/C(=N/OC)c1cccc(Cl)c1CO/N=C(\COC)c1cccc(F)c1F [compound 91],13,15,–,–,17,18
COC/C(=N\OCc1c(Cl)cccc1/C(=N\OC)C(=O)OC)c1ccccc1C [compound 124],–,–,62,22,–,–
COC/C(=N\OCc1c(Cl)cccc1/C(=N\OC)C(=O)OC)c1ccc(Cl)c(Cl)c1 [compound 68],17,2,40,12,45,9
COC/C(=N\OCc1c(Cl)cccc1/C(=N\OC)C(=O)OC)c1ccc(Cl)c(F)c1 [compound 114],35,10,–,–,82,30
CNC(=O)/C(=N/OC)c1cccc(Cl)c1CO/N=C(\COC)c1ccc(F)c(F)c1F [compound 108],21,4,–,–,19,7
"CO/C=C(/C(=O)OC)c1cccc(Cl)c1CO/N=C(/COC)c1ccc(F)cn1 [compound 132, methyl (E)-2-[3-chloro-2-[[(E)-[1-(5-fluoro-2-pyridyl)-2-methoxy-ethylidene]amino]oxymethyl]phenyl]-3-methoxy-prop-2-enoate]",–,33,–,–,–,15
COC/C(=N\OCc1c(Cl)cccc1/C(=N\OC)C(=O)OC)c1ccc(Cl)cc1F [compound 104],42,7,–,–,27,9
CO/C=C(/C(=O)OC)c1cccc(Cl)c1CO/N=C(\COC1CC1)c1ccc(F)cc1 [compound 60],21,2,–,–,21,6
CO/C=C(/C(=O)OC)c1cccc(Br)c1CO/N=C(\COC1CC1)c1ccc(F)cc1 [compound 65],15,1,–,–,23,2
CNC(=O)/C(=N/OC)c1cccc(Cl)c1CO/N=C(\COC)c1ccc(Cl)cc1Cl [compound 85],42,37,–,–,65,25
COC/C(=N\OCc1c(Cl)cccc1/C(=N\OC)C(=O)OC)c1cccc(C)c1 [compound 126],71,14,–,–,73,34
CNC(=O)/C(=N/OC)c1cccc(Cl)c1CO/N=C(\COC)c1cccc(Cl)c1Cl [compound 75],73,24,67,33,25,11
